Ki data for 25 compounds are collected here from patent US20230293517A1, “ANTAGONIST COMPOUNDS” (AdoRx Therapeutics Limited, priority 2020, published 2023).

The target of experiment [1] is human Adenosine A3 receptor (Homo sapiens (Human), UniProt P0DMS8). Put plainly: Adenosine receptor TR-FRET binding assay (A3). Conditions: inhibition of binding of 100 nM CA200645, CHO cell membranes. The gist of the method: (§1)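 Terbium-labelled human receptors in CHO cell membranes were incubated 2 h at room temperature with test compounds and fluorescent XAC tracer CA200645 (30 nM for A2b; 100 nM for A1, A2a, A3). TR-FRET 665/620 nm ratio gave specific binding; Ki derived from IC50 by Cheng–Prusoff.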
Background: In TR-FRET formats the signal depends on donor and acceptor labels being close together.

Experiment [2] has as its target human Adenosine A2a receptor (Homo sapiens (Human), UniProt P29274). Put plainly: Adenosine receptor TR-FRET binding assay (A2a). The note with it: inhibition of binding of 100 nM CA200645, CHO cell membranes. The method, boiled down: as §1
The target in experiment [3] is human Adenosine A1 receptor (Homo sapiens (Human), UniProt P30542). Put plainly: Adenosine receptor TR-FRET binding assay (A1). The note with it: inhibition of binding of 100 nM CA200645, CHO cell membranes. The gist of the method: as §1
Experiment [4] has as its target human Adenosine A2b receptor (Homo sapiens (Human), UniProt P29275). Put plainly: Adenosine receptor TR-FRET binding assay (A2b). Conditions: TR-FRET, inhibition of binding of 30 nM CA200645, CHO cell membranes. The gist of the method: as §1

Sequence of human Adenosine A2b receptor (P29275 whole entry): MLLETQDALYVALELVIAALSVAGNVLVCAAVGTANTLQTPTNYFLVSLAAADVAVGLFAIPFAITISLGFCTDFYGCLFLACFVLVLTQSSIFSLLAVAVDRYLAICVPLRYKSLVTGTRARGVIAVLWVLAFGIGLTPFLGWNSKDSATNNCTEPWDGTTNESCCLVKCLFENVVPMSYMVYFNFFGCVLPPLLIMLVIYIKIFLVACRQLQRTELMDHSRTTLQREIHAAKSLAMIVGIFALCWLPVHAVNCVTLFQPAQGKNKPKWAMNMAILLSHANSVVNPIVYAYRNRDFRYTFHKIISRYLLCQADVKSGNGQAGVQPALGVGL
Sequence of human Adenosine A3 receptor (P0DMS8 whole entry): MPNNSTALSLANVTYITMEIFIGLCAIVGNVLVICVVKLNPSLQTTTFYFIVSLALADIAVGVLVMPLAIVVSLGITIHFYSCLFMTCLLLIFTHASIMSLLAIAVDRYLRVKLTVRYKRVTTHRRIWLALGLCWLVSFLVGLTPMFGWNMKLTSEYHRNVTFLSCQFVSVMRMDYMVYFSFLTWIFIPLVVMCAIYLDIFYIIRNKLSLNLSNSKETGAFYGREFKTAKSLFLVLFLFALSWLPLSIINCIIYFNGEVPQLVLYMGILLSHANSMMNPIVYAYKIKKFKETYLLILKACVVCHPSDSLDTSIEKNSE
Sequence of human Adenosine A1 receptor (P30542 whole entry): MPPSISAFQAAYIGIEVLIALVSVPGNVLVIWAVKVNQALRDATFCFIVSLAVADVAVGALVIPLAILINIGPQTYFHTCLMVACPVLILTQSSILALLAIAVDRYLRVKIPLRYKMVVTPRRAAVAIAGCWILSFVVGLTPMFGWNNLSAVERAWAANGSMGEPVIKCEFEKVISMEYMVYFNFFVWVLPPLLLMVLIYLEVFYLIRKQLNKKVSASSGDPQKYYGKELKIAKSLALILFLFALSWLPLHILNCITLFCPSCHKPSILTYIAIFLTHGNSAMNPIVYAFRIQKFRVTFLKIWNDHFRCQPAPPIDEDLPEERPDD
Sequence of human Adenosine A2a receptor (P29274 whole entry): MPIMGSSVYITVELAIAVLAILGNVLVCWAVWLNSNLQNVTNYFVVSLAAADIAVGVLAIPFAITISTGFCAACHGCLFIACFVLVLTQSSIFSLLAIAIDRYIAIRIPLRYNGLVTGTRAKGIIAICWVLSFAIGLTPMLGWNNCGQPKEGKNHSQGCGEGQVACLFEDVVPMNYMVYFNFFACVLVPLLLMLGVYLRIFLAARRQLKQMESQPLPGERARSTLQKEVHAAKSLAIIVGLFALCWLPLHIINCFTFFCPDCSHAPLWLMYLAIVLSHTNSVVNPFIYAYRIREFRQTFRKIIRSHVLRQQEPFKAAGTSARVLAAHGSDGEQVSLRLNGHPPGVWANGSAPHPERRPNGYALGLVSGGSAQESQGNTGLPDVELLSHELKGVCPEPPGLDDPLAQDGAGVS

As for `Cc1cc(-c2sc(NC(=O)N3CCC(C)(C#N)C3)nc2-c2cccc(C#N)c2)cc(C2COC2)n1` (stereo not shown) [Example 6.110, 3-Cyano-N-[4-(3-cyanophenyl)-5-[2-methyl-6-(oxetan-3-yl)-4-pyridyl]thiazol-2-yl]-3-methyl-pyrrolidine-1-carboxamide], the inhibitory constant (Ki) (commonly the dissociation constant of the complex between target and ligand, obtained from inhibition or displacement) came to 956 nM in experiment [1], 0.26 nM in experiment [2], 13 nM in experiment [3] and 3.6 nM in experiment [4].
With `Cc1cc(-c2sc(NC(=O)N3CCC4(CC3)CN(C)C(=O)N4C)nc2-c2cccc(C#N)c2)cc(C)n1` [Example 6.89, N-[4-(3-Cyanophenyl)-5-(2,6-dimethyl-4-pyridyl)thiazol-2-yl]-1,3-dimethyl-2-oxo-1,3,8-triazaspiro[4.5]decane-8-carboxamide], the Ki in experiment [1] was found to be 300 nM; in experiment [2], 1.01 nM; in experiment [3], 326 nM; in experiment [4] it was 3.5 nM.
Taken in the same sequence, the figures for `COC(C)c1cc(-c2sc(NC(=O)N3CC4(COC4)C3)nc2-c2cccc(C#N)c2)cc(C)n1` (stereo not shown) [Example 22, N-[4-(3-Cyanophenyl)-5-[2-(1-methoxyethyl)-6-methyl-4-pyridyl]thiazol-2-yl]-2-oxa-6-azaspiro[3.3]heptane-6-carboxamide] were 2060 nM, 0.2 nM, 7 nM and 3.2 nM.
Taken in the same sequence, the figures for `Cc1cc(-c2sc(NC(=O)N3CC(C(C)(C)O)C3)nc2-c2cccc(C#N)c2)cc(C)n1` [Example 4.33, N-[4-(3-Cyanophenyl)-5-(2,6-dimethyl-4-pyridyl)thiazol-2-yl]-3-(1-hydroxy-1-methyl-ethyl)azetidine-1-carboxamide] were 410 nM, 1.91 nM, 62 nM and 5.9 nM.
The like results for `Cc1cc(-c2sc(NC(=O)N3CCNC[C@H]3CO)nc2-c2cccc(C#N)c2)cc(C)n1` [Example 13.6, (2S)-N-[4-(3-Cyanophenyl)-5-(2,6-dimethyl-4-pyridyl)thiazol-2-yl]-2-(hydroxymethyl)piperazine-1-carboxamide] were, in that order, 133 nM, 16.8 nM, 220 nM and 79.7 nM.
Turning to `Cc1cc(-c2sc(NC(=O)N3CCN(C4COC4)CC3)nc2-c2cccc(C#N)c2)cc(CO)n1` [Example 9.4], the Ki amounted to 1540 nM in experiment [1], 4.19 nM in experiment [2], 410 nM in experiment [3] and 20.1 nM in experiment [4].
As to `Cc1cc(-c2sc(NC(=O)N3CC[S+]([O-])CC3)nc2-c2cccc(C#N)c2)cc(C#N)n1` [Example 16.5], the Ki in experiment [1] is 325 nM; in experiment [2], 11.9 nM; in experiment [3], 87 nM; in experiment [4] it was 19.9 nM.
The like results for `Cc1cc(-c2sc(NC(=O)N3CCC4(CC3)CNC4=O)nc2-c2cccc(C#N)c2)cc(CO)n1` [Example 9.1] were, in that order, 1000 nM, 0.78 nM, 95 nM and 7 nM.
As for `N#Cc1cccc(-c2nc(NC(=O)N3CC4(COC4)C3)sc2-c2cc(Cl)nc(Cl)c2)c1` [Example 16.10], the Ki amounted to 254 nM in experiment [1], 0.57 nM in experiment [2], 43 nM in experiment [3] and 1.7 nM in experiment [4].
Taken in the same sequence, the figures for `Cc1cc(-c2sc(NC(=O)N3CCC(N)(C#N)CC3)nc2-c2cccc(C#N)c2)cc(C)n1` [Example 7.2, 4-Amino-4-cyano-N-[4-(3-cyanophenyl)-5-(2,6-dimethyl-4-pyridyl)thiazol-2-yl]piperidine-1-carboxamide] were 337 nM, 0.2 nM, 8 nM and 1 nM.
The like results for `Cc1cc(-c2sc(NC(=O)N3CC4(COC4)C3)nc2-c2cccc(C#N)c2)cc(C(C)C)n1` [Example 16.8] were, in that order, 537 nM, 0.13 nM, 6 nM and 1.1 nM.
With `Cc1cc(-c2sc(NC(=O)N3CCN[C@@H](C(N)=O)C3)nc2-c2cccc(C#N)c2)cc(Cl)n1` [Example 5.7, (3R)-N1-[5-(2-Chloro-6-methyl-4-pyridyl)-4-(3-cyanophenyl)thiazol-2-yl]piperazine-1,3-dicarboxamide], the inhibition constant Ki in experiment [1] turned out to be 247 nM; in experiment [2] it was 2.9 nM; in experiment [3], 48 nM; in experiment [4], 1.8 nM.
Take `Cc1cc(-c2sc(NC(=O)N3CC[S+]([O-])CC3)nc2-c2cccc(C#N)c2)cc(CO)n1` [Example 9.3]: the inhibition constant Ki stood at 1510 nM in experiment [1], 1.11 nM in experiment [2], 29 nM in experiment [3] and 8.1 nM in experiment [4].
`COC(=O)[C@H]1CN(C(=O)Nc2nc(-c3cccc(C#N)c3)c(-c3cc(C)nc(Cl)c3)s2)CCN1` [Example 5.1, Methyl (2R)-4-[[5-(2-chloro-6-methyl-4-pyridyl)-4-(3-cyanophenyl)thiazol-2-yl]carbamoyl]piperazine-2-carboxylate]: the Ki in experiment [1] turned out to be 229 nM; in experiment [2] it was 0.62 nM; in experiment [3], 45 nM; in experiment [4], 1.6 nM.
The like results for `Cc1cc(-c2sc(NC(=O)N3CCN[C@H](C(=O)O)C3)nc2-c2cccc(C#N)c2)cc(Cl)n1` [Example 3.5] were, in that order, 928 nM, 11.6 nM, 434 nM and 11.4 nM.
The like results for `Cc1cc(-c2sc(NC(=O)N3CCO[C@@H](CO)C3)nc2-c2cccc(C#N)c2)cc(C)n1` [Example 4.16, (2R)-N-[4-(3-Cyanophenyl)-5-(2,6-dimethyl-4-pyridyl)thiazol-2-yl]-2-(hydroxymethyl)morpholine-4-carboxamide] were, in that order, 265 nM, 0.9 nM, 41 nM and 2.2 nM.
The like results for `Cc1cc(-c2sc(NC(=O)N3CC[C@@H]3C(C)(C)O)nc2-c2cccc(C#N)c2)cc(C)n1` [Example 6.83, (2R)-N-[4-(3-Cyanophenyl)-5-(2,6-dimethyl-4-pyridyl)thiazol-2-yl]-2-(1-hydroxy-1-methyl-ethyl)azetidine-1-carboxamide] were, in that order, 294 nM, 67.6 nM, 129 nM and 102 nM.
Take `Cc1cc(-c2sc(NC(=O)N3CC[C@@H](C(N)=O)C3)nc2-c2cccc(C#N)c2)cc(C)n1` [Example 6.8, (3R)-N1-[4-(3-Cyanophenyl)-5-(2,6-dimethyl-4-pyridyl)thiazol-2-yl]pyrrolidine-1,3-dicarboxamide]: the Ki was determined as 312 nM in experiment [1], 0.72 nM in experiment [2], 23 nM in experiment [3] and 1.1 nM in experiment [4].
The like results for `CC(=O)NCc1cc(-c2sc(NC(=O)N3CC4(COC4)C3)nc2-c2cccc(C#N)c2)cc(C)n1` [Example 20, N-[5-[2-(Acetamidomethyl)-6-methyl-4-pyridyl]-4-(3-cyanophenyl)thiazol-2-yl]-2-oxa-6-azaspiro[3.3]heptane-6-carboxamide] were, in that order, 2540 nM, 6.85 nM, 133 nM and 39.1 nM.
Taken in the same sequence, the figures for `Cc1cc(-c2sc(NC(=O)N3CCN4CCNC(=O)C4C3)nc2-c2cccc(C#N)c2)cc(C)n1` (stereo not shown) [Example 6.16, N-[4-(3-Cyanophenyl)-5-(2,6-dimethyl-4-pyridyl)thiazol-2-yl]-9-oxo-3,4,6,7,8,9a-hexahydro-1H-pyrazino[1,2-a]pyrazine-2-carboxamide] were 565 nM, 3.99 nM, 422 nM and 17.6 nM.
The like results for `Cc1cc(-c2sc(NC(=O)N3C[C@@H]4C[C@H]3CN4C)nc2-c2cccc(C#N)c2)cc(C)n1` [Example 6.102, (1S,4S)-N-[4-(3-Cyanophenyl)-5-(2,6-dimethyl-4-pyridyl)thiazol-2-yl]-5-methyl-2,5-diazabicyclo[2.2.1]heptane-2-carboxamide] were, in that order, 195 nM, 7.42 nM, 64 nM and 10.5 nM.
Turning to `Cc1cc(-c2sc(NC(=O)N3CCC(C(=O)O)CC3)nc2-c2cccc(C#N)c2)cc(C)n1` [Example 6.62, 1-[[4-(3-Cyanophenyl)-5-(2,6-dimethyl-4-pyridyl)thiazol-2-yl]carbamoyl]piperidine-4-carboxylic acid], the Ki in experiment [1] stood at 358 nM; in experiment [2], 35.7 nM; in experiment [3], 219 nM; in experiment [4], 23.3 nM.
With `Cc1cc(-c2sc(NC(=O)N3CCN4C(=O)COCC4C3)nc2-c2cccc(C#N)c2)cc(C)n1` (stereo not shown) [Example 6.37, N-[4-(3-Cyanophenyl)-5-(2,6-dimethyl-4-pyridyl)thiazol-2-yl]-4-oxo-6,7,9,9a-tetrahydro-1H-pyrazino[2,1-c][1,4]oxazine-8-carboxamide], the Ki amounted to 356 nM in experiment [1], 1.82 nM in experiment [2], 91 nM in experiment [3] and 10.1 nM in experiment [4].
Taken in the same sequence, the figures for `Cc1cc(-c2sc(NC(=O)N3CCO[C@H](CO)C3)nc2-c2cccc(C#N)c2)cc(C)n1` [Example 4.21, (2S)-N-[4-(3-Cyanophenyl)-5-(2,6-dimethyl-4-pyridyl)thiazol-2-yl]-2-(hydroxymethyl)morpholine-4-carboxamide] were 265 nM, 0.3 nM, 10 nM and 1 nM.
The like results for `Cc1cc(-c2sc(NC(=O)N3CCCC3)nc2-c2cccc(C#N)c2)cc(Cl)n1` [Example 3.2] were, in that order, 1040 nM, 0.4 nM, 12 nM and 0.7 nM.
